Legend:
[1] = system: HES3-TBX5-TdTomato^+/W/NKX2-5^eGFP/W reporter hESC line; experiment: NKX2-5-eGFP and TBX5-tdTomato reporter expression during GiWi cardiac differentiation (fluorescence microscopy); assay type: cell-based, human
From the text: Human iPSCs (hiPSCs) were established from a healthy donor (FIG. 1), 201B7 hiPSCs (RIKEN BRC, Tsukuba, Japan), and HES3-TBX5-TdTomato^+/W/NKX2-5^eGFP/Wreporter hESCs that were a kind gift from Dr. Reza Ardehali, UCLA Geffen School of Medicine (Pezhouman et al., 2022, Cardiovasc Res. 118(3):828-43), were used. HiPSCs were maintained on iMatrix-511 (Matrixome, Osaka, Japan)-coated 6-well plates (Corning, Glendale, Arizona, United States) in StemFit AK02N (Ajinomoto, Tokyo, Japan) and passaged every 7 days.
HESCs were maintained on Matrigel Growth Factor Reduced Basement Membrane Matrix (Corning)-coated 6-well plates (Corning) in StemFlex Medium (Thermo Fisher Scientific, Waltham, MA, United States) and passaged every 3-4 days. StemPro Accutase Cell Dissociation Reagent (Thermo Fisher Scientific) was used for dissociation. 10 μmol/L Y27632 (Tocris, Bristol, United Kingdom) was used for improvement of cell survival for 24 hours after seeding. Mycoplasma tests were performed for all the cell culture in this study.
For LV-cardiomyocyte differentiation, cardiac differentiation was performed according to the protocol published by (Lian et al., 2012, Proc Natl Acad Sci USA 109:E1848-57). Cells were dissociated with StemPro Accutase Cell Dissociation Reagent at 37° C. for 5 minutes. HESCs were seeded on Matrigel-coated 24-well plates (Corning) in StemFlex Medium supplemented with 10 μmol/L Y-27632. HiPSCs were seeded on iMatrix-511-coated 12-well plates (Corning) in StemFit AK02N supplemented with 10 μmol/L Y-27632 at seeding densities of 1×10^5 cells/cm^2 for hESCs and 1.25-2.5×10^4 cells/cm^2 for hiPSCs. Cells were cultured for 4 days until the start of differentiation (day 0). On day 0, the medium was changed to RPMI 1640 Medium (Thermo Fisher Scientific) supplemented with B-27 Supplement minus insulin (Thermo Fisher Scientific) (RPMI/B27-insulin) or B-27 Supplement with insulin (Thermo Fisher Scientific), and 12 μmol/L CHIR 99021 (SelleckChem, Houston, TX, United States), and the cells incubated in this medium for 24 h (day 1). On day 1, the medium was changed to RPMI/B27-insulin. To enhance cardiac differentiation, 50 μmol/L 2-O-α-D-glucopyranosyl-L-ascorbic acid (Tokyo Chemical Industry, Tokyo, Japan) was added on day 1 only for hiPSCs (Burridge et al., 2014 Nat Methods, 11:855-860). On day 3, the medium was changed to RPMI/B27-insulin supplemented with 5 μmol/L IWP2 (SelleckChem) and on day 5, the medium was changed to 1 ml RPMI/B27-insulin. From day 7, the cells were cultured with RPMI/B27-insulin, and the cells were fed every other day. On day 12, the cells were washed with PBS (Thermo Fisher Scientific) and cultured with DMEM or RPMI, no glucose supplemented with 8 mmol/L L-(+)-Lactic acid (Merck) (Tohyama et al., 2013 Cell Stem Cell, 12:127-37). The medium was changed every other day until day 17. After day 17, the cells were cultured with RPMI/B27 and fed every 2 to 3 days. For long-term culture, the cells were dissociated with TrypLE™ Select Enzyme (10×) (Thermo Fisher Scientific) at 37° C. for 15-20 minutes and seeded on Matrigel- or iMatrix-511-coated plates. For RV-cardiomyocyte induction, Dorsomorphin 2HCl (SelleckChem), dorsomorphin homologue 1 (DMH1) (SelleckChem), or 3 μg/L insulin were used from day 0 to day 1. For FIG. 15A and FIG. 15B, dorsomorphin (DM) or 3 μg/L insulin were added on day 0 (for 24 hours), 1, 3, or 5 (for 48 hours).

[2] = system: human induced pluripotent stem cell-derived cardiac progenitor cells; experiment: Quantitative PCR of heart field and cardiac markers in differentiating hiPSCs (day 0 to day 7); assay type: cell-based; details: B-27 containing insulin day 0 to day 1; qPCR day 7; vs control cells
Procedure: For LV-cardiomyocyte differentiation, cardiac differentiation was performed according to the protocol published by (Lian et al., 2012, Proc Natl Acad Sci USA 109:[…]-57). Cells were dissociated with StemPro Accutase Cell Dissociation Reagent at 37° C. for 5 minutes. HESCs were seeded on Matrigel-coated 24-well plates (Corning) in StemFlex Medium supplemented with 10 μmol/[…] were seeded on iMatrix-511-coated 12-well plates (Corning) in StemFit A[…] supplemented with 10 μmol/[…] at seeding densities of 1×10^5 cells/cm^2 for hESCs and 1.25-2.5×10^4 cells/cm^2 for hiPSCs. Cells were cultured for 4 days until the start of differentiation (day 0). On day 0, the medium was changed to RPMI 1640 Medium (Thermo Fisher Scientific) supplemented with B-27 Supplement minus insulin (Thermo Fisher Scientific) (RPMI/B27-insulin) or B-27 Supplement with insulin (Thermo Fisher Scientific), and 12 μmol/L CHIR 99021 (SelleckChem, Houston, TX, United States), and the cells incubated in this medium for 24 h (day 1). On day 1, the medium was changed to RPMI/B27-insulin. […] PowerUpTM SYBR Green Master Mix (Thermo Fisher Scientific) and QuantStudio 1 (Thermo Fisher Scientific) were used for quantitative PCR (q-PCR), wherein q-PCR data were processed using the ΔΔCT method. […] Data were analyzed with the web-based tool of GeneGlobe Data Analysis Center (Qiagen).

[3] = 3 μg/mL insulin on day 0, read day 13
[4] = B-27 supplement containing insulin on differentiation day 0, read day 7 (cardiac progenitor stage)
[5] = B-27 supplement containing insulin on differentiation day 0, read day 14 (cardiomyocyte stage)

## insulin
[1]; [3]
  Nkx2.5-eGFP expression: strong
  TBX5-tdTomato expression: without TBX5-tdTomato expression
[1]; 10 μg/mL insulin on day 0, read day 13
  eGFP and TBX5-tdTomato expression: very low
[1]; 0.1, 0.3, 1, and 3 μg/mL insulin on day 0, read day 13
  TBX5-tdTomato expression, dose dependence: decreased with increasing doses
[1]; [4]
  NKX2-5-eGFP expression: low
  TBX5-tdTomato expression: low
[1]; [5]
  NKX2-5-eGFP expression: high
  TBX5-tdTomato expression: low
[2]
  expression levels of FHF markers (TBX5 and HCN4): lower expression levels
  mRNA expression levels of SHF markers (ISL1 and CXCR4): higher mRNA expression levels

Reference: patent US20240271096A1, “EFFICIENT DIFFERENTIATION OF SECOND HEART FIELD CARDIAC PROGENITOR CELLS AND RIGHT VENTRICLE CARDIOMYOCYTES FROM HUMAN PLURIPOTENT STEM CELLS” (Wisconsin Alumni Research Foundation, priority 2023, published 2024)
